Results on 16 compounds are retold here after patent US7071231B2, “Naphthalene ureas as glucose uptake enhancers” (Telik, Inc., priority 1999, dated 2006).

The first assay concerns 3T3 L1 fibroblasts. Nature of the assay: Glucose transport activity assay (14C-2-deoxy-D-glucose uptake). The assay is classed as cell-based. The following applies: EC (effective concentration) for increase in glucose transport; 14C-2-deoxy-D-glucose, 3T3 L1 cells; read-out: Concentration (μM) to reach >150% activity of vehicle control. A digest of the protocol:
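Differentiated 3T3 L1 adipocytes (IBMX/dexamethasone/insulin induction), serum-starved overnight, preincubated 30 min at 37 °C with compound ± insulin in pH 7.4 salt buffer, then 30 min with 5 μCi/ml 14C-2-deoxy-D-glucose. Lysate radioactivity counted; EC = concentration raising uptake above 150% of vehicle control.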
With `CN=C(Nc1ccc2ccc(NS(=O)(=O)c3ccc(Cl)c(C(=O)OC)c3)cc2c1)Nc1ccc2ccc(NS(=O)(=O)c3ccc(Cl)c(C(=O)OC)c3)cc2c1` [Compound 161, methyl 5-[({7-[((1E)-2-aza-1-{[7-({[4-chloro-3-(methoxycarbonyl)phenyl]sulfonyl}amino)(2-naphthyl)]amino}prop-1-enyl)amino](2-naphthyl)}amino)sulfonyl]-2-chlorobenzoate], the EC (150% of vehicle control) is recorded as greater than 32 µM.

Take `CN=C(Nc1ccc2ccc(NS(=O)(=O)c3ccc(Cl)c(C(=O)O)c3)cc2c1)Nc1ccc2ccc(NS(=O)(=O)c3ccc(Cl)c(C(=O)O)c3)cc2c1` [Compound 162, 5-({[7-({(1E)-2-aza-1-[(7-{[(3-carboxy-4-chlorophenyl)sulfonyl]amino}(2-naphthyl))amino]prop-1-enyl}amino)(2-naphthyl)]amino}sulfonyl)-2-chlorobenzoic acid]: the EC (150% of vehicle control) was greater than 32 µM.

As to `COC(=O)c1cc(S(=O)(=O)Nc2ccc3ccc(NC(=NC#N)Nc4ccc5ccc(NS(=O)(=O)c6ccc(Cl)c(C(=O)OC)c6)cc5c4)cc3c2)ccc1Cl` [Compound 165, methyl 5-[({7-[((1E)-2-aza-1-{[7-({[4-chloro-3-(methoxycarbonyl)phenyl]sulfonyl}amino)(2-naphthyl)]amino}-2-cyanovinyl)amino](2-naphthyl)}amino)sulfonyl]-2-chlorobenzoate], the EC (150% of vehicle control) amounted to 3.2 µM.

In the case of `N#CN=C(Nc1ccc2ccc(NS(=O)(=O)c3ccc(Cl)c(C(=O)O)c3)cc2c1)Nc1ccc2ccc(NS(=O)(=O)c3ccc(Cl)c(C(=O)O)c3)cc2c1` [Compound 166, 5-({[7-({(1E)-2-aza-1-[(7-{[(3-carboxy-4-chlorophenyl)sulfonyl]amino}(2-naphthyl))amino]-2-cyanovinyl}amino)(2-naphthyl)]amino}sulfonyl)-2-chlorobenzoic acid], the EC (150% of vehicle control) is 3.2 µM.

As to `C=CCN=C(Nc1ccc2ccc(NS(=O)(=O)c3ccc(Cl)c(C(=O)OC)c3)cc2c1)Nc1ccc2ccc(NS(=O)(=O)c3ccc(Cl)c(C(=O)OC)c3)cc2c1` [Compound 167, methyl 5-[({7-[((1E)-2-aza-1-{[7-({[4-chloro-3-(methoxycarbonyl)phenyl]sulfonyl}amino)(2-naphthyl)]amino}penta-1,4-dienyl)amino](2-naphthyl)}amino)sulfonyl]-2-chlorobenzoate], the EC (150% of vehicle control) is greater than 32 µM.

Turning to `C=CCN=C(Nc1ccc2ccc(NS(=O)(=O)c3ccc(Cl)c(C(=O)O)c3)cc2c1)Nc1ccc2ccc(NS(=O)(=O)c3ccc(Cl)c(C(=O)O)c3)cc2c1` [Compound 168, 5-({[7-({(1E)-2-aza-1-[(7-{[(3-carboxy-4-chlorophenyl)sulfonyl]amino}(2-naphthyl))amino]penta-1,4-dienyl}amino)(2-naphthyl)]amino}sulfonyl)-2-chlorobenzoic acid], the EC (150% of vehicle control) is on record as greater than 32 µM.

With “methyl 2-chloro-5-[({7-[({[7-({[4-chloro-3-(methoxycarbonyl)phenyl]amino}sulfonyl)(2-naphthyl)]amino}iminomethyl)amino](2-naphthyl)}sulfonyl)amino]benzoate [Compound 159]”, the EC (150% of vehicle control) was determined as 3.2 µM.

Staying with this assay, now noted: Mus musculus; EC (effective concentration) for increase in glucose transport; 14C-2-deoxy-D-glucose, 3T3 L1 cells; read-out: Concentration (μM) to reach >150% activity of vehicle control.
In the case of `COC(=O)c1cc(NS(=O)(=O)c2ccc3ccc(NC(=S)Nc4ccc5ccc(S(=O)(=O)Nc6ccc(Cl)c(C(=O)OC)c6)cc5c4)cc3c2)ccc1Cl` [Compound 157, methyl 2-chloro-5-[({7-[({[7-({[4-chloro-3-(methoxycarbonyl)phenyl]amino}sulfonyl)(2-naphthyl)]amino}thioxomethyl)amino](2-naphthyl)}sulfonyl)amino]benzoate], the EC (150% of vehicle control) was greater than 32 µM.

For the compound `COC(=O)c1cc(NS(=O)(=O)c2ccc3ccc(/N=C(/Nc4ccc5ccc(S(=O)(=O)Nc6ccc(Cl)c(C(=O)OC)c6)cc5c4)SC)cc3c2)ccc1Cl` [Compound 158, methyl 5-({[7-((1Z)-1-aza-2-{[7-({[4-chloro-3-(methoxycarbonyl)phenyl]amino}sulfonyl)(2-naphthyl)]amino}-2-methylthiovinyl)(2-naphthyl)]sulfonyl}amino)-2-chlorobenzoate], the EC (150% of vehicle control) is greater than 32 µM.

In the case of `O=C(Nc1ccc2cc(S(=O)(=O)Nc3cccc(S(=O)(=O)O)c3)ccc2c1)Nc1ccc2cc(S(=O)(=O)Nc3cccc(S(=O)(=O)O)c3)ccc2c1` [Compound 169, 3-{[(6-{[(6-{[(3-sulfophenyl)amino]sulfonyl}-2-naphthyl)amino]carbonylamino}-2-naphthyl)sulfonyl]amino}benzenesulfonic acid], the EC (150% of vehicle control) is 3.2 µM.

As for `O=C(Nc1ccc2cc(S(=O)(=O)Nc3cccc(C(=O)O)c3)ccc2c1)Nc1ccc2cc(S(=O)(=O)Nc3cccc(C(=O)O)c3)ccc2c1` [Compound 171, 3-{[(6-{[(6-{[(3-carboxyphenyl)amino]sulfonyl}-2-naphthyl)amino]carbonylamino}-2-naphthyl)sulfonyl]amino}benzoic acid], the EC (150% of vehicle control) amounted to 3.2 µM.

Take `O=C(Nc1ccc2cc(S(=O)(=O)Nc3ccc(C(=O)O)cc3)ccc2c1)Nc1ccc2cc(S(=O)(=O)Nc3ccc(C(=O)O)cc3)ccc2c1` [Compound 173, 4-{[(6-{[(6-{[(4-carboxyphenyl)amino]sulfonyl}-2-naphthyl)amino]carbonylamino}-2-naphthyl)sulfonyl]amino}benzoic acid]: the EC (150% of vehicle control) amounted to 3.2 µM.

For the compound `O=C(Nc1ccc2cc(S(=O)(=O)Nc3cc(C(=O)O)cc(C(=O)O)c3)ccc2c1)Nc1ccc2cc(S(=O)(=O)Nc3cc(C(=O)O)cc(C(=O)O)c3)ccc2c1` [Compound 175, 5-{[(6-{[(6-{[(3,5-dicarboxyphenyl)amino]sulfonyl}-2-naphthyl)amino]carbonylamino}-2-naphthyl)sulfonyl]amino}benzene-1,3-dicarboxylic acid], the EC (150% of vehicle control) was found to be 3.2 µM.

Take `O=C(Nc1ccc2cc(S(=O)(=O)Nc3c(F)c(F)cc(C(=O)O)c3F)ccc2c1)Nc1ccc2cc(S(=O)(=O)Nc3c(F)c(F)cc(C(=O)O)c3F)ccc2c1` [Compound 177, 3-{[(6-{[(6-{[(3-carboxy-2,5,6-trifluorophenyl)amino]sulfonyl}(2-naphthyl))amino]carbonylamino}(2-naphthyl))sulfonyl]amino}-2,4,5-trifluorobenzoic acid]: the EC (150% of vehicle control) was greater than 32 µM.

Consider `O=C(O)Cc1ccc(NS(=O)(=O)c2ccc3cc(NC(=O)Nc4ccc5cc(S(=O)(=O)Nc6ccc(CC(=O)O)cc6)ccc5c4)ccc3c2)cc1` [Compound 179, 2-[4-({[6-({N-[6-({[4-(carboxymethyl)phenyl]amino}sulfonyl)-2-naphthyl]carbamoyl}amino)-2-naphthyl]sulfonyl}amino)phenyl]acetic acid], for which the EC (150% of vehicle control) is greater than 32 µM.

On to `O=C(Nc1ccc2cc(S(=O)(=O)N3CCCC(C(=O)O)C3)ccc2c1)Nc1ccc2cc(S(=O)(=O)N3CCCC(C(=O)O)C3)ccc2c1` (stereo not shown) [Compound 181, 1-({6-[({6-[(3-carboxypiperidyl)sulfonyl]-2-naphthyl}amino)carbonylamino]-2-naphthyl}sulfonyl)piperidine-3-carboxylic acid], for which the EC (150% of vehicle control) was determined as 3.2 µM.
